Source: article PMC12809495, “Potential 14-3-3 binding sites in sirtuins reveal extended phosphosite-recognition modes” (Acta Crystallographica Section F: Structural Biology …, 2026)
Where two headings read alike, the source gives them in different places. Where a SMILES comes first, the peptide text is derived from it. [ ]: non-standard residue; d: D form. pS = N[C@@H](COP(=O)(O)O)C(=O)O

How the values were obtained:
14-3-3 isoform gamma = molecular target: T1, 14-3-3 isoform gamma (Homo sapiens, UniProt P61981); test: Label-free microscale thermophoresis (MST) binding, 14-3-3 gamma; details: 0.6 µM 14-3-3 protein, 25 mM MES pH 6.5, 5 mM MgCl2, 5 mM CaCl2, 25°C, Kd from duplicate measurements, aggr. = no successful experiment
T1 construct: His6; made in house; host or cells: Escherichia coli BL21 Rosetta (DE3)
T1 sequence (P61981 1-247): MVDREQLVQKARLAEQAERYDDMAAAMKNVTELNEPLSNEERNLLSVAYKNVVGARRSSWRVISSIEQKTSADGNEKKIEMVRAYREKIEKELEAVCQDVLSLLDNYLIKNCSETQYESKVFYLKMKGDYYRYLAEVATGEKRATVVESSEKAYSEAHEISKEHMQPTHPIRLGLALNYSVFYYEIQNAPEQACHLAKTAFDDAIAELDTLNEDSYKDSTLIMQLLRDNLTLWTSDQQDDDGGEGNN
Description: (§1) The binding of phosphorylated sirtuin peptides (Fig. 1 ▸) was analyzed using the change in the intrinsic fluorescence signal of the 14-3-3 proteins measured with label-free microscale thermophoresis using a Nanotemper Monolith NT.LabelFree or NT.115. A typical binding experiment using 0.6 µM 14-3-3 protein was performed in a modified MST buffer consisting of 25 mM MES pH 6.5, 5 mM MgCl2, 5 mM CaCl2. The measurements were performed at 25°C using a LED power of 10–40%. All measurements were performed at least in duplicate, and the results shown are representative measurements individually fitted using GraFit 7 (Erathicus Software, Horley, United Kingdom).
Figure 1 Classification and analysis of sirtuin PSSM results for potential 14-3-3 phosphoserine binding sites. Peptides with a gray background were not analyzed experimentally. Score is the overall PSSM score for the phosphorylation site; rank is the order within the 17 proposed sirtuin binding sites. Conserved residues in the 14-3-3 motifs are marked in green. Residues with restricted (proline) or very flexible (glycine) protein backbone or with a very large side chain (tryptophan) are marked in red. Amino acids with the same or similar hydrophobicity/size are shown in magenta. Kd values from duplicate measurements are colored green for Kd < 100 µM. Fields marked in red indicate no binding or no successful experiment. […]

14-3-3 isoform theta = molecular target: T2, 14-3-3 isoform theta (Homo sapiens, UniProt P27348); test: Label-free microscale thermophoresis (MST) binding, 14-3-3 theta; details: label-free MST, 0.6 µM 14-3-3 protein, 25 mM MES pH 6.5, 5 mM MgCl2, 5 mM CaCl2, 25°C; Kd from duplicate measurements; read-out: Affinity estimates by MicroScale Thermophoresis, 14-3-3 isoform theta (Kd)
T2 construct: His6; made in house; host or cells: Escherichia coli BL21 Rosetta (DE3)
T2 sequence (P27348 1-245): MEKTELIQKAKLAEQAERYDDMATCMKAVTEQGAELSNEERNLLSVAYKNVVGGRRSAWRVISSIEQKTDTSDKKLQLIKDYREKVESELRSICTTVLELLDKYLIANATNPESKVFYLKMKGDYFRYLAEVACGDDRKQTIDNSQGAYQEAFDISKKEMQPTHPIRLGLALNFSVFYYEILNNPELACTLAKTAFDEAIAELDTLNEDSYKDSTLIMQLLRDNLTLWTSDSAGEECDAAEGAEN
Description: as §1
(§2) Figure 1 Classification and analysis of sirtuin PSSM results for potential 14-3-3 phosphoserine binding sites. Peptides with a gray background were not analyzed experimentally. Score is the overall PSSM score for the phosphorylation site; rank is the order within the 17 proposed sirtuin binding sites. Conserved residues in the 14-3-3 motifs are marked in green. Residues with restricted (proline) or very flexible (glycine) protein backbone or with a very large side chain (tryptophan) are marked in red. Amino acids with the same or similar hydrophobicity/size are shown in magenta. Kd values from duplicate measurements are colored green for Kd < 100 µM. Fields marked in red indicate no binding or no successful experiment. TEXT PRINTED IN THE PICTURE: Sirt1 S26: Affinity estimates by MicroScale Thermophoresis [μM], 14-3-3 isoform sigma: none | Sirt1 S670: Affinity estimates by MicroScale Thermophoresis [μM], 14-3-3 isoform gamma: aggr.; Affinity estimates by MicroScale Thermophoresis [μM], 14-3-3 isoform epsilon: > 183; Affinity estimates by MicroScale Thermophoresis [μM], 14-3-3 isoform theta: 93; Affinity estimates by MicroScale Thermophoresis [μM], 14-3-3 isoform sigma: 5 | Sirt3 S103: Affinity estimates by MicroScale Thermophoresis [μM], 14-3-3 isoform gamma: aggr.; Affinity estimates by MicroScale Thermophoresis [μM], 14-3-3 isoform epsilon: > 267; Affinity estimates by MicroScale Thermophoresis [μM], 14-3-3 isoform theta: 52; Affinity estimates by MicroScale Thermophoresis [μM], 14-3-3 isoform sigma: 10 | Sirt3 S103wt: Affinity estimates by MicroScale Thermophoresis [μM], 14-3-3 isoform gamma: aggr.; Affinity estimates by MicroScale Thermophoresis [μM], 14-3-3 isoform theta: none; Affinity estimates by MicroScale Thermophoresis [μM], 14-3-3 isoform sigma: none | Sirt3 S105: Affinity estimates by MicroScale Thermophoresis [μM], 14-3-3 isoform gamma: aggr.; Affinity estimates by MicroScale Thermophoresis [μM], 14-3-3 isoform epsilon: > 215; Affinity estimates by MicroScale Thermophoresis [μM], 14-3-3 isoform theta: 60; Affinity estimates by MicroScale Thermophoresis [μM], 14-3-3 isoform sigma: none | Sirt5 S168: Affinity estimates by MicroScale Thermophoresis [μM], 14-3-3 isoform epsilon: aggr.; Affinity estimates by MicroScale Thermophoresis [μM], 14-3-3 isoform theta: aggr.; Affinity estimates by MicroScale Thermophoresis [μM], 14-3-3 isoform sigma: > 329 | Sirt6 T337: Affinity estimates by MicroScale Thermophoresis [μM], 14-3-3 isoform epsilon: > 420; Affinity estimates by MicroScale Thermophoresis [μM], 14-3-3 isoform sigma: 12 | Sirt6 S338: Affinity estimates by MicroScale Thermophoresis [μM], 14-3-3 isoform epsilon: 19; Affinity estimates by MicroScale Thermophoresis [μM], 14-3-3 isoform sigma: 24 | Sirt7 S136: Affinity estimates by MicroScale Thermophoresis [μM], 14-3-3 isoform epsilon: none; Affinity estimates by MicroScale Thermophoresis [μM], 14-3-3 isoform theta: 30; Affinity estimates by MicroScale Thermophoresis [μM], 14-3-3 isoform sigma: 49

14-3-3σ-ΔC = molecular target: T3, 14-3-3σ-ΔC (Homo sapiens, UniProt P31947); test: Label-free microscale thermophoresis (MST) binding, 14-3-3σ
T3 construct: His6; made in house; host or cells: Escherichia coli BL21 Rosetta (DE3)
T3 sequence (P31947 1-231 limits assumed): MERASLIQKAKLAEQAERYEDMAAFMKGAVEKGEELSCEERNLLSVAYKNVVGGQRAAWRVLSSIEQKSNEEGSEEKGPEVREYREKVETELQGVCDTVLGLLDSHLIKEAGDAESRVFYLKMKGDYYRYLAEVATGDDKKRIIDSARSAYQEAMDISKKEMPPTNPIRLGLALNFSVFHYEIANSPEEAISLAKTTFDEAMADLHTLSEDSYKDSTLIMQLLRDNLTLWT
Description: as §1, §2
For nine of the sites, including sites from all sirtuin isoforms except Sirt4, endecameric phosphopeptides were chemically synthesized for in vitro analysis. […]

Affinity estimates by MicroScale Thermophoresis, 14-3-3 isoform gamma (Kd) (14-3-3 isoform gamma): aggr. | Kd (14-3-3 isoform theta): 93 µM | Kd (14-3-3σ-ΔC; Fig. 1, label-free MST, 0.6 µM 14-3-3 protein, 25 mM MES pH 6.5, 5 mM MgCl2, 5 mM CaCl2, 25°C, Kd from duplicate measurements, read-out: Affinity estimates by MicroScale Thermophoresis, 14-3-3 isoform sigma (Kd)): 5 µM | Kd (14-3-3σ-ΔC; Fig. 3a, average of two independent MST experiments, 25°C, MES pH 6.5, read-out: average Kd, MST titration of 14-3-3σ-ΔC): 1.7 ± 1.3 µM
Compound: CC(C)C[C@H](NC(=O)[C@@H](N)C(C)C)C(=O)N[C@@H](CO)C(=O)N[C@@H](CO)C(=O)N[C@@H](CO)C(=O)N[C@@H](COP(=O)(O)O)C(=O)N[C@@H](CS)C(=O)NCC(=O)N[C@@H](CO)C(=O)N[C@@H](CC(N)=O)C(=O)N[C@@H](CO)C(=O)O [Sirt1^pS670] (H-VLSSS[pS]CGSNS-OH)
